Common to all, as to format: cell-based
One experiment deals with RSV strain A2. As to the kind of experiment: microbe, parasite or virus in culture. To be noted: Table 3, HEp-2 cells, RSV A2, 4 days, read-out: RSV HEp-2 EC50. The method, boiled down: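 Cytopathic-effect protection assay: HEp-2 cells (50,000/mL) infected with pre-titered RSV A2 onto 3-fold serial compound dilutions, incubated 4 days at 37° C. Cell viability read by CellTiter-Glo luminescence; percent inhibition derived against 0% and 100% virus-inhibition controls.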

The next experiment relates to DENV2 replicon. The experiment can be described thus: DENV-2 Huh-7 Rep EC50 (replicon luminescence). Summed up:
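Huh-7 cells carrying a DENV2 replicon, 5,000 cells/well, were incubated with dosed compounds for 48 h at 37° C. EnduRen live-cell substrate was added 1.5 h before luminescence reading. EC50 came from dose-response against DMSO-only wells.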

The test system of another experiment is RSV A2. The experiment can be described thus: RSV NHBE EC50 (RSV A2 antiviral assay in NHBE cells). As to conditions: read-out: RSV NHBE EC50. Summed up: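 Antiviral activity against RSV A2 was determined in NHBE cells used within 6 passages, with cell viability quantified by CellTiter-Glo after a 4-day infection.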
The mark [1] stands for this setting: Table 3, Huh-7 DENV2 replicon cells, 48 hours, read-out: DENV-2 REP Huh7 EC50.
The mark [2] stands for this setting: Table 3, NHBE cells, RSV A2, 4 days.
Where [3] appears, read: human respiratory syncytial virus, HEp-2, 96 h.
Where [4] appears, read: Dengue virus, DENV2, Huh-7, 48 h, read-out: DENV-2 REP Huh7 EC50.
Where [5] appears, read: human respiratory syncytial virus, NHBE, 96 h, Table 3, NHBE cells, RSV A2, 4 days.
[6] abbreviates: human respiratory syncytial virus, NHBE, Table 5 comparative activity, 2',3'-OH vs -OC(O)iPr.

This passage reports EC50 results from US12264173B2 (GILEAD SCIENCES, INC., priority 2020, dated 2025).

The structures appear in SMILES notation. pEC50: −log10 of the molar value. Where two headings read alike, the source gives them in different places.

As for `CC(C)C(=O)O[C@H]1[C@H](c2ccc3c(N)ncnn23)O[C@](C#N)(COP(=O)(N[C@@H](C)C(=O)OCC2CCOCC2)Oc2ccccc2)[C@H]1OC(=O)C(C)C` (single isomer, unassigned) [Example 183], the pEC50 (usually −log10 of the EC50, conventionally taken in molar units) was 7.16 in the experiment on RSV strain A2, 5.44 in the experiment with DENV2 replicon (setting [1]) and 7.30 with RSV A2 (setting [2]).

Regarding `CCC(=O)O[C@H]1[C@H](c2ccc3c(N)ncnn23)O[C@](C#N)(CO[P@@](=O)(N[C@@H](C)C(=O)OC(C)C)Oc2ccccc2)[C@H]1OC(=O)CC` [Example 90, (2R,3S,4S,5S)-5-(4-Aminopyrrolo[2,1-f][1,2,4]triazin-7-yl)-2-cyano-2-((((S)-(((S)-1-isopropoxy-1-oxopropan-2-yl)amino)(phenoxy)phosphoryl)oxy)methyl) tetrahydrofuran-3,4-diyl dipropionate], the pEC50 with RSV strain A2 (setting [3]) was 6.96; in the experiment with DENV2 replicon (setting [4]) it was 4.61; in the experiment with RSV A2 (setting [5]) it was 7.35.

Regarding `COC(=O)[C@H](C)N[P@](=O)(OC[C@@]1(C#N)O[C@@H](c2ccc3c(=N)n(COP(=O)(O)O)cnn23)[C@H](OC(=O)C(C)C)[C@@H]1OC(=O)C(C)C)Oc1ccccc1` [Example 259, (2R,3S,4S,5S)-2-cyano-5-(4-imino-3-((phosphonooxy)methyl)-3,4-dihydropyrrolo[2,1-f][1,2,4]triazin-7-yl)-2-((((S)-(((S)-1-methoxy-1-oxopropan-2-yl)amino)(phenoxy)phosphoryl)oxy)methyl)tetrahydrofuran-3,4-diyl bis(2-methylpropanoate)], the pEC50 was 7.44 with RSV strain A2 (setting [3]), 5.27 in the experiment on DENV2 replicon (setting [4]) and 7.96 in the experiment with RSV A2 (setting [5]).

Regarding `COC(=O)[C@H](C)N[P@](=O)(OC[C@@]1(C#N)O[C@@H](c2ccc3c(N)ncnn23)[C@H](OC(=O)C(C)C)[C@@H]1OC(=O)C(C)C)Oc1ccccc1` (single isomer, unassigned) [Example 140], the pEC50 in the experiment with RSV strain A2 (setting [3]) is 7.38; in the experiment with DENV2 replicon (setting [4]) it was 5.28; in the experiment on RSV A2 (setting [5]), 7.85; in the experiment on RSV A2 (setting [6]), 7.85.

On to `CCC(=O)O[C@H]1[C@H](c2ccc3c(N)ncnn23)O[C@](C#N)(CO[P@@](=O)(N[C@@H](C)C(=O)OCC2CC2)Oc2ccccc2)[C@H]1OC(=O)CC` [Example 99], for which the pEC50 in the experiment with RSV strain A2 is 7.24; in the experiment with DENV2 replicon (setting [1]) it was 5.20; with RSV A2 (setting [2]) it was 7.85.

For `CCC(=O)O[C@H]1[C@H](c2ccc3c(N)ncnn23)O[C@](C#N)(CO[P@@](=O)(N[C@@H](C)C(=O)OC)Oc2ccccc2)[C@H]1OC(=O)CC` (single isomer, unassigned) [Example 143], the figures for the pEC50 in the experiment with RSV strain A2 (setting [3]), in the experiment with DENV2 replicon (setting [4]) and in the experiment on RSV A2 (setting [5]) were 7.04, 5.25 and 7.74, respectively.

Regarding `CC(C)C(=O)O[C@H]1[C@H](c2ccc3c(N)ncnn23)O[C@](C#N)(COP(=O)(N[C@@H](C)C(=O)OC2COC2)Oc2ccccc2)[C@H]1OC(=O)C(C)C` (single isomer, unassigned) [Example 186], the figures for the pEC50 with RSV strain A2, in the experiment on DENV2 replicon (setting [1]) and with RSV A2 (setting [2]) were 7.39, 5.37 and 8.40, respectively.

For the compound `CCC(=O)O[C@H]1[C@H](c2ccc3c(N)ncnn23)O[C@](C#N)(CO[P@@](=O)(N[C@@H](C)C(=O)OC2CCCCC2)Oc2ccccc2)[C@H]1OC(=O)CC` [Example 82, (2R,3S,4S,5S)-5-(4-aminopyrrolo[2,1-f][1,2,4]triazin-7-yl)-2-cyano-2-((((S)-(((S)-1-(cyclohexyloxy)-1-oxopropan-2-yl)amino)(phenoxy)phosphoryl)oxy)methyl) tetrahydrofuran-3,4-diyl dipropionate], the values for the pEC50 in the experiment on RSV strain A2 (setting [3]), in the experiment with DENV2 replicon (setting [4]) and in the experiment with RSV A2 (setting [5]) were 7.24, 5.12 and 7.49, respectively.

Regarding `CC(C)C(=O)O[C@H]1[C@H](c2ccc3c(N)ncnn23)O[C@](C#N)(CO[P@@](=O)(N[C@@H](C)C(=O)OC2CCCCC2)Oc2ccccc2)[C@H]1OC(=O)C(C)C` [Example 77, (2R,3S,4S,5S)-5-(4-aminopyrrolo[2,1-f][1,2,4]triazin-7-yl)-2-cyano-2-((((S)-(((S)-1-(cyclohexyloxy)-1-oxopropan-2-yl)amino)(phenoxy)phosphoryl)oxy)methyl) tetrahydrofuran-3,4-diyl bis(2-methylpropanoate)], the pEC50 in the experiment with RSV strain A2 (setting [3]) is 7.24; in the experiment with DENV2 replicon (setting [4]), 5.27; in the experiment with RSV A2 (setting [5]), 7.62.

Take `CCC(CC)COC(=O)[C@H](C)N[P@](=O)(OC[C@@]1(C#N)O[C@@H](c2ccc3c(N)ncnn23)C(OC(=O)C(C)C)[C@@H]1OC(=O)C(C)C)Oc1ccccc1` (stereo in doubt) [Example 86, (2R,3S,4R,5S)-5-(4-aminopyrrolo[2,1-f][1,2,4]triazin-7-yl)-2-cyano-2-((((S)-(((S)-1-(2-ethylbutoxy)-1-oxopropan-2-yl)amino)(phenoxy)phosphoryl)oxy)methyl) tetrahydrofuran-3,4-diyl bis(2-methylpropanoate)]: the pEC50 in the experiment on RSV strain A2 (setting [3]) is 7.00; with DENV2 replicon (setting [4]), 5.05; in the experiment on RSV A2 (setting [5]), 7.62.

With `CC(C)C(=O)O[C@H]1[C@H](c2ccc3c(N)ncnn23)O[C@](C#N)(COP(=O)(N[C@@H](C)C(=O)OCC2COC2)Oc2ccccc2)[C@H]1OC(=O)C(C)C` (single isomer, unassigned) [Example 201], the figures for the pEC50 with RSV strain A2, in the experiment on DENV2 replicon (setting [1]) and in the experiment on RSV A2 (setting [2]) were 7.04, 5.11 and 7.85, respectively.

For the compound `CCOC(=O)[C@H](C)N[P@](=O)(OC[C@@]1(C#N)O[C@@H](c2ccc3c(N)ncnn23)[C@H](OC(=O)C(C)C)[C@@H]1OC(=O)C(C)C)Oc1ccccc1` (single isomer, unassigned) [Example 144], the pEC50 was 7.47 in the experiment with RSV strain A2 (setting [3]); 5.21 in the experiment with DENV2 replicon (setting [4]); 5.21 in the experiment with DENV2 replicon (Dengue virus, DENV2, Huh-7, read-out: DENV Rep EC50); 7.66 in the experiment with RSV A2 (setting [5]); 7.66 with RSV A2 (setting [6]).
